Values of other authors, collected in patent publication US10585101B2, “Prostatic liquid biopsy for the detection of prostate cancer and benign prostatic hyperplasia” (WAVESENSE, INC., priority 2016, dated 2020).

Tested on: prostate cancer
Conditions: long term use

## CC(C)(C)NC(=O)[C@H]1CC[C@H]2[C@@H]3CC[C@H]4NC(=O)C=C[C@]4(C)[C@H]3CC[C@]12C [finasteride, Finasteride]
  risk of low-grade prostate cancer: decreased the risk of low-grade prostate cancer
